Legend:
TIGIT/PVR interaction = molecular target: T1, TIGIT/PVR interaction (Homo sapiens, UniProt P15151); assay: Blocking assay by flow cytometry, preliminary screening at a single concentration, TIGIT/PVR; assay type: binding; details: preliminary test, single concentration of 100 μM
T1 construct: purchased ACRO Biosystem CD5-H82F6; host or cells: CHOK1-TIGIT cells (lenti-viral transfection)
T1 sequence (P15151 21-343 limits assumed): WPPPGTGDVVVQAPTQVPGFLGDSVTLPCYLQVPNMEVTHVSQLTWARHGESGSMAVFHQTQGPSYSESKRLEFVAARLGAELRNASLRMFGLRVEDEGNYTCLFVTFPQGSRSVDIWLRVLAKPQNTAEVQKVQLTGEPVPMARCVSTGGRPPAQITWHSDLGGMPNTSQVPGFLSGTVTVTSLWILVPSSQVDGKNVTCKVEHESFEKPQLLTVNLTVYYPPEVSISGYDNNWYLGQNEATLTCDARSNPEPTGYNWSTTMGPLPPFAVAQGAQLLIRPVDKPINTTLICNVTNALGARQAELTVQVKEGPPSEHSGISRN
Protocol: The abilities of small molecule inhibitors (SMIs) (purchased from TargetMol, Shanghai, China) to block the binding of SIRPα protein to CHOK1-CD47 cells or PVR protein to CHOK1-TIGIT cells were determined by flow cytometry, as previously reported. The SMIs at indicated concentrations were incubated with Fc-tagged SIRPα or PVR protein for 30 min at 4°C, followed by incubating with the indicated cells for another 30 min. Human SIRPα protein (SIA-H5251, ACRO Biosystem, Beijing, China), mouse SIRPα protein (SIA-M5258, ACRO Biosystem, Beijing, China), human PVR protein (CD5-H82F6, ACRO Biosystem, Beijing, China), and mouse PVR protein (50259-M03H, Sino Biological, Beijing, China) were used. PE-conjugated anti-human IgG antibody was used to detect the Fc protein bind to cells. Cells incubated with the Fc proteins and anti-human IgG antibody without the SMIs serve as the positive control. The mean fluorescent intensity (MFI) of each sample was detected and recorded by a flow cytometry. The blocking efficacy of the SMIs was calculated as the equation: (MFI of the positive control-MFI of the SMI)/MFI of the positive control × 100%.
The small molecule inhibitor could not only bind to the target; most importantly, it should interfere with the receptor–ligand interactions. Subsequently, the candidate inhibitors were screened by the blocking assays with the established CD47 and TIGIT over-expressing cell lines. The test was initialed with a preliminary screening of the candidates with a single concentration (Figure 2D). Generally, the SMI blocking efficacy to the CD47/SIRPα interaction was much higher than that of the TIGIT/PVR. […] Therefore, the SMI-F11 and SMI-F17 may exert dual blocking effects in the CD47/SIRPα and TIGIT/PVR pathways. Blocking assays with a concentration gradient of the SMI were further performed to validate the preliminary screening. […] The similar blocking assays with the mouse CD47 and TIGIT over-expressing cells were also performed. […] Considering that most pairs of the immune checkpoints interact with the corresponding ligand in parallel forms, the blocking assays with the PD-1/PD-L1 interaction system was also conducted to test the specificity.

CT26 cells = assay: Phagocytosis assay, BMDM co-cultured with CFSE-labeled CT26 cells; assay type: cell-based, mouse; details: 20 μM, 4 h
Protocol: Bone marrow-derived macrophage (BMDM) cells were isolated from C57BL/6 or BALB/c mice and induced with 20 ng/mL of GM-CSF (Peprotech, Rocky Hill, CT, USA) for 7 days. Meanwhile, the medium was replaced with fresh medium containing the cytokine and the adherent cells were harvested. Phagocytosis assays were performed by a co-culture of the BMDM macrophages with carboxyfluorescein succinimidyl ester-labeled (CFSE^+) or GFP^+ tumor cells at a ratio of 1:4 in a serum-free medium at 37 °C for 4 h, in low-attachment 96-well tissue culture plates (Corning, New York, NY, USA). The cells were harvested and the macrophages were identified by a flow cytometry using anti-F4/80 antibody (eBioscience, San Diego, CA, USA). Then, 7-AAD (eBioscience) was used to exclude the dead cells. The effects of azelnidipine (20 μM) on phagocytosis by BMDM cells were tested, and the anti-CD47 antibody (clone: miap301) were used as the positive control. Phagocytosis rate was determined with the formulation: F4/80^+GFP^+ or F4/80^+CFSE^+ cells/ Total F4/80^+ cells.
Figure 4 Azelnidipine enhances macrophage mediated phagocytosis of the tumor cells. The effects of the azelnidipine on the phagocytosis of the macrophages were tested by a co-culture of the tumor cells and BMDM cell derived from C57BL/6 or BALB/c mice. […] GFP^+ or CFSE^+ BMDMs were detected by a flow cytometry. […]

CC1=C(C(=O)OC(C)C)C(c2cccc([N+](=O)[O-])c2)C(C(=O)OC2CN(C(c3ccccc3)c3ccccc3)C2)=C(N)N1 (centres unmarked) [Azelnidipine]
activity in interfering with the TIGIT/PVR interaction (TIGIT/PVR interaction): better activities
phagocytosis of CT26 cells by BMDM cells (CT26 cells): significantly enhance
